# Results from patent US20100183600A1, “RAF Inhibitors and Their Uses” (ARQULE, INC., priority 2008, published 2010).
# Key:
# [1] = Equilibrium solubility at varying pH (shake flask); type: physicochemical; conditions: for solubility: 25 °C, thermodynamic from solid
# Experimental: Solubility of the compounds was determined by the traditional shake flask method. Aliquots of solid compounds were mixed with an appropriate buffer of the desired pH and equilibrated by shaking at room temperature (˜25° C.) for 6-24 hours. Following aqueous buffers were used for the pH control: 0.1N HCl pH=1.2, 50 mM Lactate buffer pH=3.0, 50 mM Acetate buffer pH=5.0, and 100 mM Phosphate buffer pH 7.4. After equilibration, samples were filtered through a 0.45 um filter and analyzed by HPLC/UV against the calibration curves of standard solution.
# RKO = test: Cell growth inhibition assay (MTS); type: cell-based; conditions: Homo sapiens
# Experimental: (§1) Compounds of the present invention have been tested for activity against a variety of cancer cell lines. The ability of compounds to inhibit cell growth in this assay is correlated with the reduction of dehydrogenase enzyme activity found in metabolically active cells.
# (§2) Materials: A large variety of cancer cells from ATCC were maintained at 37° C., 5% CO2 in DMEM media supplemented with 10% fetal bovine serum, penicillin/streptomycin and fungizone (Invitrogen). NCM460 (Incell), a normal colon epithelial cell line, and human mammary epithelial cells (Cambrex) were maintained at 37° C., 5% CO2 in DMEM and HEBM media (Cambrex), respectively.
# (§3) Methods: Test compounds were dissolved and diluted to 300× in DMSO then diluted 1:40 in DMEM. Cells were seeded into 96-well tissue culture plates at 1-5×10^3 per well and cultured at 37° C. for 24 h. Cells were incubated with test compounds for 72 hours followed by incubation with tetrazolium compound (3-(4,5-dimethylthiazol-2-yl)-5-(3-carboxymethoxyphenyl)-2-(4-sulfophenyl)-2H-tetrazolium, inner salt; MTS) and the electron coupling reagent, phenazine methosulfate (PMS) for 4 hr. […] The measurement of the absorbance of the formazan was assessed using an ENVISION™ (Perkin Elmer) microplate reader at 492 nm. The calculated IC50 value is the concentration of the test compound that causes a 50% decrease in the absorbance.
# DLD-1 = test: Cell growth inhibition assay (MTS); type: cell-based; conditions: Homo sapiens
# Experimental: as §1, §2, §3
# A375 = test: Cell growth inhibition assay (MTS); type: cell-based; conditions: Homo sapiens
# Experimental: as §1, §2, §3
# SK-MEL-28 = test: Cell growth inhibition assay (MTS); type: cell-based; conditions: Homo sapiens
# Experimental: as §1, §2, §3
# WM-266-4 = test: Cell growth inhibition assay (MTS); type: cell-based; conditions: Homo sapiens
# Experimental: as §1, §2, §3
# mutant B-RAF = target: T1, mutant B-RAF (Homo sapiens, UniProt P15056, V600E); test: Measurement of RAF activity (MEK-1 phosphorylation); type: biochemical; conditions: 50 μM ATP, MEK-1 substrate; read-out: Mut-B-Raf IC50
# T1 construct: purchased Upstate (Charlottesville, Va.)
# T1 sequence (P15056 whole entry V600E): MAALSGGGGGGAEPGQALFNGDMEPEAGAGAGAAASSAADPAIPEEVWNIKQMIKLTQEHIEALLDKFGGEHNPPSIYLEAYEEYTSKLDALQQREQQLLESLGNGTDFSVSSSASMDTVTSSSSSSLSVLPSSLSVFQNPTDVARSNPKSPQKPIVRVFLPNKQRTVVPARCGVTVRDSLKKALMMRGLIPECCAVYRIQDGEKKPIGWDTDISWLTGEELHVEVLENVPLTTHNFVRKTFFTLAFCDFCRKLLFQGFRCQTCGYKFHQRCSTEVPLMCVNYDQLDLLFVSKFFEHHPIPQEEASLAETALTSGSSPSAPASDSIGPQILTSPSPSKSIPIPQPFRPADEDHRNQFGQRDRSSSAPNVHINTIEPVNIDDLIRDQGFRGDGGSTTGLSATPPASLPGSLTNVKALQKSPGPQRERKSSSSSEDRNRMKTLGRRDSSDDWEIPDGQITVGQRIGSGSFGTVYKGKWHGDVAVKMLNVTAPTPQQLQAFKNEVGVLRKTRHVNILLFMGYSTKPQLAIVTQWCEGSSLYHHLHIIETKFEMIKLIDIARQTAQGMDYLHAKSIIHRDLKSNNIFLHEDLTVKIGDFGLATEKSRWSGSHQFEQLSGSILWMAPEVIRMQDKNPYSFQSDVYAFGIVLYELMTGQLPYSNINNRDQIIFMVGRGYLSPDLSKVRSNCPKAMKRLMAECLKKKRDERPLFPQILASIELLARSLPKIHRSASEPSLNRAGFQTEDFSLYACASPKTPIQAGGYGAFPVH
# Experimental: Materials: The RAF kinases and the anti-phospho MEK1/2 antibody were from Upstate (Charlottesville, Va.). The RAF substrate used was full length N-terminal GST-MEK-1, which was expressed in E. coli and purified in-house by HPLC. All proteins were aliquoted and stored at −80° C. Superblock™ in phosphate buffered saline (PBS) blocking reagent was form Pierce (cat. #37515). ATP was from Roche (cat. # 19035722). Alkaline Phosphatase-tagged goat anti-rabbit antibody was from Pierce (cat. # 31340).
# Methods: All RAF biochemical assays were performed using an assay buffer containing 20 mM MOPS, 5 mM EGTA, 37.5 mM MgCl2, 1 mM DTT and 50 μM ATP. There was 6.25 ng/well mutant B-RAF and 7.5 ng/well MEK-1 in the final assay conditions. Compounds were serially diluted in assay buffer containing 1% DMSO and 20 μl of test compound at a concentration 3-fold more than the final concentration, and were added to a polypropylene V-well reaction plate. Vehicle control wells received buffer only with DMSO at equivalent concentrations to the test wells. […] These reaction plates were incubated at room temperature for 30 minutes. Capture of MEK-1 was initiated by transferring 50 μl of the reaction mixture to a Nunc Maxisorp™ microplate that is designed for non-specific protein capture. After 30 minute capture of MEK-1 at room temperature, this plate was washed with TBST (6×200 μL/well) to fully terminate the reaction. The plate was then blocked for 1 hour by the addition of 100 μl/well of Superblock™ in phosphate buffered saline (PBS) blocking reagent. Plate was again washed with TBST (6 times with 200 μl/well), followed by the addition of 70 μl/well of Upstate anti-phospho MEK ½ diluted 1:1000 in Pierce Superblock (PBS). After a 60 minute incubation, this plate was washed with TBST (6 times with 200 μl/well), and 70 μl of the secondary antibody (Pierce Alkaline Phosphatase tagged goat anti-rabbit) prepared at 1:4000 in Superblock, were added. After a 45 minute incubation at room temperature, the wells of the microplate were washed with TBST (6 times with 200 μl/well), and thereafter 100 μl/well of Attophos™ fluorescent alkaline phosphatase substrate was added according to the manufacturer's instructions (JBL Scientific). Fluorescence was read on a Perkin Elmer Envision multilabel reader, using the following filters: Excitation Filter: CFP430 nM, Emission Filter: Emission Filter 579 nM.
# [2] = aqueous buffer (0.1N HCl), pH 1.2, simulated gastric fluid
"solubility ([1]; aqueous buffer (50 mM lactate buffer), aqueous buffer, pH 3.0) [µg/mL]","solubility [1, 2] [µg/mL]",Aqueous solubility ([1]; pH 5.0),Aqueous solubility ([1]; pH 7.4),"GI50 (DLD-1; DLD-1, 72 hours) [nM]","GI50 (A375; A-375, 72 h, A375, 72 hours) [nM]","GI50 (SK-MEL-28; SK-MEL-28, 72 hours) [nM]",IC50 (mutant B-RAF) [nM],"solubility ([1]; aqueous buffer (50 mM acetate buffer), aqueous buffer, pH 5.0) [µg/mL]","solubility ([1]; aqueous buffer (100 mM phosphate buffer), pH 7.4, aqueous buffer) [µg/mL]",solubility in aqueous solution compared with compound 17 ([1]; at or near biologically relevant pH),"GI50 (DLD-1; DLD-1, colon) [nM]","GI50 (A375; A-375, A375, skin) [nM]","GI50 (A375; A-375, A-375, melanoma) [nM]","GI50 (SK-MEL-28; SK-MEL-28, malignant melanoma) [nM]",SMILES,GI50 (RKO; 72 hours) [nM],"GI50 (WM-266-4; WM-266-4, 72 hours) [nM]",GI50 (RKO; colon carcinoma) [nM],"GI50 (WM-266-4; WM 266-4, WM-266.4, melanoma) [nM]"
10,1050,insoluble,insoluble,12100,< 0.4,97,8,,,,,,,,"Cn1ccc(S(=O)(=O)N2CCC[C@@H](Nc3nccc(-c4c(-c5cccc(O)c5)nc5occn45)n3)C2)n1 [Compound 17, (R)-3-(5-(2-(1-(1-methyl-1H-pyrazol-3-ylsulfonyl)piperidin-3-ylamino)pyrimidin-4-yl)imidazo[2,1-b]oxazol-6-yl)phenol]",95,0.6,,
,< 1300,,,,,,2920,> 13000,> 300000,dramatically more soluble,19000,300,280,1700,"Cn1ccc(S(=O)(=O)N2CCC[C@@H](Nc3nccc(-c4c(-c5cccc(OCOP(=O)(O)O)c5)nc5occn45)n3)C2)n1 [Compound 19, (R)-(3-(5-(2-(1-(1-methyl-1H-pyrazol-3-ylsulfonyl)piperidin-3-ylamino)pyrimidin-4-yl)imidazo[2,1-b]oxazol-6-yl)phenoxy)methyl dihydrogen phosphate]",,,570,130
